{
  "source": "paper PMC8983860",
  "about": "“A Novel Small Molecular Inhibitor of DNMT1 Enhances the Antitumor Effect of Radiofrequency Ablation in Lung Squamous Cell Carcinoma Cells” (Frontiers in Pharmacology, 2022)",
  "key": {"[1]": {"biological_target": "DNMT-1 (Homo sapiens, UniProt P26358)", "sequence (P26358 whole entry)": "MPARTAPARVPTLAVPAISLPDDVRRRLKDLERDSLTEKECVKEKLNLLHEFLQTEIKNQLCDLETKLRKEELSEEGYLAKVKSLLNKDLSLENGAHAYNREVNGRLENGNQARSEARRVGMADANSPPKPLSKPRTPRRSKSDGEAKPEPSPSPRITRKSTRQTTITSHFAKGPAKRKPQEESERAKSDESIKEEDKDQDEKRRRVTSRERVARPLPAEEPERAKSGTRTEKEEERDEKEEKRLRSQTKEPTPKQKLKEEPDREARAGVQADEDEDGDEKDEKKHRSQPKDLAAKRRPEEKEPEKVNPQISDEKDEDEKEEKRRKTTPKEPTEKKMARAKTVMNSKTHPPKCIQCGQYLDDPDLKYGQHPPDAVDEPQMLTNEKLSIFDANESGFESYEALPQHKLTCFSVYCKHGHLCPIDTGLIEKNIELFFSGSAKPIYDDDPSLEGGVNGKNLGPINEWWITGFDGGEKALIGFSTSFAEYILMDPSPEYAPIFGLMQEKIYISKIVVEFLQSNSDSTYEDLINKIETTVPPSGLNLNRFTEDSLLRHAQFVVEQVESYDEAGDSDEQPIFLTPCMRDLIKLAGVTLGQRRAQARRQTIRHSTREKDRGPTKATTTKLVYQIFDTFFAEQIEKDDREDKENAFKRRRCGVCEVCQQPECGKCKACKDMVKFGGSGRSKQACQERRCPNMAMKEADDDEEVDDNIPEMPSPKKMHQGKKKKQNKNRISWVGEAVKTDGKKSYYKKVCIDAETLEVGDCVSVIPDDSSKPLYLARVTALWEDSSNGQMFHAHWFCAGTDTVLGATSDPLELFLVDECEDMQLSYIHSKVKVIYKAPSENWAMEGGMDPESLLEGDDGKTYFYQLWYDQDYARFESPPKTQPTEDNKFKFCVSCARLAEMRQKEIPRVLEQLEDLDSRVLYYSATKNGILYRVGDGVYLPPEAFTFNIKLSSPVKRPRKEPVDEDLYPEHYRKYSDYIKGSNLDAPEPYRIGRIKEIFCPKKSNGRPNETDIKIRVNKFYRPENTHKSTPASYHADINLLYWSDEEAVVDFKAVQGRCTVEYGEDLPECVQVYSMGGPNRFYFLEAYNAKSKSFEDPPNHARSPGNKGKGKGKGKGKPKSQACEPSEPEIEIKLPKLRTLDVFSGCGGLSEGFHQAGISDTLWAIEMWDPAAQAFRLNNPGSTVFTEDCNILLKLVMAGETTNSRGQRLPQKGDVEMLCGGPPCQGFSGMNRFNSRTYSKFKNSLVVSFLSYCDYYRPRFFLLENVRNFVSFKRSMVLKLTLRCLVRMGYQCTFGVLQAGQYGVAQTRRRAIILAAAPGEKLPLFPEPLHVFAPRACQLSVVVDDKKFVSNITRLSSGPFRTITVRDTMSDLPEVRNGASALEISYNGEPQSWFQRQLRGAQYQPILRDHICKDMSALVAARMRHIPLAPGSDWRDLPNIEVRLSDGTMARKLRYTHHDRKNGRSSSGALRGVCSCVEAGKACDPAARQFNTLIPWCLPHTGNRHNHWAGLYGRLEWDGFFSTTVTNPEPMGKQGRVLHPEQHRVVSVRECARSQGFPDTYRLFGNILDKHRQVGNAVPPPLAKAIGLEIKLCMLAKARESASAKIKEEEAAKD", "experiment": "In vitro activity test on DNMT-1", "type": "biochemical", "conditions": "for In vitro activity (IC50) compared to ZINC15602870: comparison in words; for IC50: in vitro activity on DNMT1, Table 1", "experimental": "AutoDock Vina was used to screen the 72,000 compounds using the ligands in the original protein as the docking template. […] Continuous fine screening was performed with AutoDock Vina to obtain the top 50 compounds which were then analyzed by cluster analysis. Next, the representative compounds with large structural differences were empirically selected. Finally, a total of 12 representative compounds were selected (see supporting document), purchased from Medrige or synthesized by ourselves.\nThe side chains of compounds 03 and 07 were then introduced onto position R2 of the new parent ring (Table 1). In vitro activity tests were then performed as previously described ([Datta et al., 2009])."}, "[2]": {"tested_on": "H226 LSCC cells", "experiment": "Subcutaneous H226 LSCC tumors in nude mice, oral iDNMT with or without RFA", "type": "in vivo", "experimental": "The antitumor efficacy of iDNMT, RFA, and iDNMT1 + RFA on LSCC tissues was examined in nude mice. Nude mice aged 5 weeks were obtained from the Si-Bei-Fu Corporation (Beijing, China), and they were fed under specific pathogen-free conditions. The H226 cells (approximately 5 × 10^6 cells/animal), which were transfected with plasmids, were subcutaneously injected into nude mice to generate tumor tissues ([Feng et al., 2019]; [Sun et al., 2019]). The dimensions of these tumors were measured using a Vernier caliper every 7 days. Tumor volumes were calculated according to the following formula: tumoral width × tumoral width × tumoral length/2 ([Feng et al., 2019]; [Sun et al., 2019]). For RFA treatment or RFA + iDNMT treatment, RFA of the LSCC subcutaneous tumors was performed using a thyroid-ablation needle (Cat No.: UniBlate 700-103587 17G, RITA Company, Crystal Lake, IL, United States) when the tumoral volume reached ∼500 mm^3. The conditions for RFA were as follows: 2 min RFA-duration with a series of different temperatures, 65, 60, or 55°C. In addition, iDNMT was administered orally at 10, 5, 2, or 1 mg/kg ([Xie et al., 2018a]; [Xie et al., 2018b]; [Zhou et al., 2021]). The formulation of iDNMT and the oral administration were performed as previously described ([Zou et al., 2021a]; [Zou et al., 2021b]; [Wang et al., 2021c]; [Jie et al., 2021]). Subcutaneous tumors were separated from the animals, and the weights of these tumors were measured using a precision-balance."}, "[3]": {"tested_on": "H226 cells", "experiment": "Subcellular fractionation and Western blotting of H226 cells", "type": "cell-based, human", "conditions": "immunoblotting", "experimental": "The H226 cells were cultured in Dulbecco’s modified Eagle’s medium (DMEM) with 10% (v/v) fetal bovine serum (FBS). The cells were transfected with plasmids or treated with the appropriate concentration of iDNMT [low dose (0.1 μmol/L), medium dose (1 μmol/L), and high dose (10 μmol/L)]. The H226 cells were then harvested for subcellular fractionation assays as previously described. The H226 cells were split into the nuclear subfraction or the cytoplasmic subfraction ([Lu et al., 2013]; [Yang et al., 2013]; [Feng et al., 2018b]). NICD, PSEN-1, and DNMT1 expression levels were examined in the subfractions by immunoblotting using antibodies from Santa Cruz (United States) or Abcam (United Kingdom). We chose β-actin and lamin A as the cytoplasmic and nuclear loading controls or indicators, respectively ([Lu et al., 2013]; [Yang et al., 2013]; [Feng et al., 2018b]).\nTo further confirm the specificity of iDNMT on the Notch pathway, we analyzed the cytoplasm–nuclear subfraction using immunoblotting. […] The methylation rates of the miR-27-3p′s promoter region and expression level of DNMT-1 or miR-27-3p in cell samples of Figure 5B are shown in Supplementary Figure S1. Therefore, iDNMT represses PSEN-1 expression to inhibit cleavage of Notch, thus inhibiting NICD accumulation in H226 cells."}, "[4]": {"tested_on": "Notch pathway", "experiment": "Expression of Notch pathway-related factors (qPCR) and methylation of the miR-27-3p promoter (BSP-NGS) after iDNMT treatment", "type": "cell-based, human", "experimental": "The genomic DNA samples from the clinical specimens, tumor tissues, and cultured cells were extracted and isolated using the DNeasy Blood & Tissue Kit (Cat No. 69504; QIAGEN, Hilden, Germany) and treated with the EpiTect Bisulfite Kit (Cat No. 59104; QIAGEN) according to the manufacturer’s instructions. Next, the polymerase chain reactions (PCRs) were performed using DNA samples and a high-fidelity polymerase, Platinum II Hot-Start PCR Master Mix (Cat No. 14000012; Thermo Fisher Scientific), to amplify the selected promoter region (chr19: 13836440-13838517, negative chain [-], the selected promoter region of has-pre-miR-27) of miR-27 with CpG islands (chr19: 13,835,599-13,835,325, negative chain [-]). […] Following PCR experiments, the products were directly sequenced by using Ion Torrent PGM, and the methylation rates were calculated as previously described ([Ma et al., 2020]; [Wang et al., 2021b]; [He et al., 2021]).\nFor quantitative PCR (qPCR) analysis, the total RNA was extracted from the clinical specimens, LSCC cells, or subcutaneous tumor tissues as described by Ma et al. (2020) before reverse transcription to generate cDNA. The expression of DNMT1, Notch-related factors, and has-pre-miR-27 was examined by real-time quantitative fluorescence PCR (RT-PCR/qPCR) ([Ma et al., 2016]; [Yang et al., 2020]; [Du et al., 2021]) with β-actin as the loading control. […]"}},
  "data": [
    {"smiles": "COc1cc(C(=O)Nc2ccc(S(=O)(=O)NC(=O)c3ccccc3)cc2)ccc1C", "note": "[Compound 04]", "values": [
      {"measurement": "In vitro activity (IC50) compared to ZINC15602870", "setting": "[1]", "value": "improved IC50 values"},
      {"measurement": "IC50", "setting": "[1]", "value": 13, "unit": "µM"}
    ]},
    {"smiles": "COc1cc(C(=O)Nc2nc(SCC3OCCO3)n[nH]2)ccc1C", "note": "[Compound 08]", "values": [
      {"measurement": "IC50", "setting": "[1]", "value": 30, "unit": "µM"}
    ]},
    {"smiles": "COc1cc(C(=O)Nc2ccc(C(=O)N3CCN(C(C)=O)CC3)cc2)ccc1C", "note": "[Compound 03]", "values": [
      {"measurement": "In vitro activity (IC50) compared to ZINC15602870", "setting": "[1]", "value": "improved IC50 values"},
      {"measurement": "IC50", "setting": "[1]", "value": 7, "unit": "µM"}
    ]},
    {"smiles": "CCC(Sc1n[nH]c(NC(=O)c2ccc(C)c(OC)c2)n1)C(=O)OC", "note": "(stereo not shown) [Compound 07]", "values": [
      {"measurement": "IC50", "setting": "[1]", "value": 9, "unit": "µM"}
    ]},
    {"smiles": "COc1ccc(C(=O)Nc2ccc(C(=O)N3CCN(C(C)=O)CC3)cc2)cc1OC", "note": "[Compound 10]", "values": [
      {"measurement": "IC50", "setting": "[1]", "value": 4.71, "unit": "µM"},
      {"measurement": "LSCC tumor volumes", "setting": "[2]; 2 mg/kg iDNMT oral combined with 2 min RFA at 55°C", "value": "significantly induced shrinkage of LSCC tumor volumes"},
      {"measurement": "EMT process of LSCC cells in subcutaneous tissues", "setting": "[2]; iDNMT with RFA 55°C for 2 min", "value": "inhibited the EMT process"},
      {"measurement": "miR-27-3p expression in tumor tissues", "setting": "[2]; oral, 2 mg/kg, leads to inhibition of the Notch pathway", "value": "significantly upregulated miR-27-3p expression"},
      {"measurement": "subcutaneous growth of H226 cells (antitumor activity)", "setting": "[2]; oral, iDNMT alone, 2 mg/kg", "value": "weak antitumor activity"},
      {"measurement": "subcutaneous growth of H226 cells", "setting": "[2]; oral, iDNMT alone, 5 mg/kg", "value": "most significant inhibition"},
      {"measurement": "subcutaneous growth of H226 cells", "setting": "[2]; oral, iDNMT alone, 10 mg/kg", "value": "most significant inhibition"},
      {"measurement": "DNMT-1 expression", "setting": "[3]; Figure 5B", "value": "no effects on DNMT-1 expression"},
      {"measurement": "PSEN-1 expression", "setting": "[3]; Figure 5B", "value": "inhibited PSEN-1 expression"},
      {"measurement": "accumulation of NICD in the nuclear subfraction", "setting": "[3]; iDNMT low 0.1, medium 1, high 10 μmol/L, dose-dependent", "value": "reduced accumulation of NICD in the nuclear subfraction"},
      {"measurement": "methylation of the miR-27-3p promoter region", "setting": "[4]; Figure 5A", "value": "decreased methylation of the miR-27-3p promoter region"},
      {"measurement": "expression of PSEN-1 or downstream factors of the Notch pathway", "setting": "[4]; N-cadherin, vimentin, survivin, cIAP-1, cIAP-2, Figure 5A", "value": "inhibit the expression of PSEN-1 or downstream factors of the Notch pathway"}
    ]},
    {"smiles": "CCOC(=O)CCCSc1n[nH]c(NC(=O)c2ccc(C)c(OC)c2)n1", "note": "[Compound 09]", "values": [
      {"measurement": "IC50", "setting": "[1]", "value": 22, "unit": "µM"}
    ]},
    {"smiles": "COC(=O)CCSc1n[nH]c(NC(=O)c2ccc(C)c(OC)c2)n1", "note": "[Compound 05]", "values": [
      {"measurement": "IC50", "setting": "[1]", "value": 18, "unit": "µM"}
    ]},
    {"smiles": "CCC(Sc1n[nH]c(NC(=O)c2ccc(OC)c(OC)c2)n1)C(=O)OC", "note": "(stereo not shown) [Compound 11]", "values": [
      {"measurement": "IC50", "setting": "[1]", "value": 6, "unit": "µM"}
    ]},
    {"smiles": "COCCCSc1n[nH]c(NC(=O)c2ccc(C)c(OC)c2)n1", "note": "[Compound 06]", "values": [
      {"measurement": "IC50", "setting": "[1]", "value": 38, "unit": "µM"}
    ]},
    {"smiles": "COc1cc(C(=O)Nc2ccc(C(=O)N3CCN(C(C)C)CC3)cc2)ccc1C", "note": "[Compound 02]", "values": [
      {"measurement": "In vitro activity (IC50) compared to ZINC15602870", "setting": "[1]", "value": "improved IC50 values"},
      {"measurement": "IC50", "setting": "[1]", "value": 15, "unit": "µM"}
    ]},
    {"smiles": "COc1cc(C(=O)Nc2ccc(C(C)=O)cc2)ccc1C", "note": "[Compound 01, N-(4-acetylphenyl)-3-methoxy-4-methylbenzamide]", "values": [
      {"measurement": "IC50", "setting": "[1]", "value": 20, "unit": "µM"}
    ]}
  ]
}
